# Source: article PMC6222329 (Molecules : A Journal of Synthetic Chemistry and Natural …, 2018)
# Read-outs that look alike come from different tables or passages of the source.
# What was measured:
# BChE (Human) = target: T1, BChE (Human) (Homo sapiens, UniProt P06276); assay: BChE inhibition, Ellman's method; format: biochemical
# T1 construct: purchased Sigma-Aldrich (Steinheim, Germany)
# Method: (§1) The assay was performed in two steps.
# (§2) All enzymes were obtained from Sigma-Aldrich (Steinheim, Germany). Ellman’s reagent and the substrates were obtained from Fluka (Buchs, Switzerland). The chemicals used to prepare the buffer solution were purchased from Merck (Darmstadt, Germany).
# (§3) The enzyme inhibitory activities of the synthesized compounds were investigated by applying Ellman’s method. Enzyme solutions were dissolved in gelatin solution (1%; 2.5 units/mL). […] Then, the reaction was initiated by the addition of Ellman’s reagent 5,5′-Dithiobis(2-nitrobenzoic acid) (DTNB; 20 µL/well, 10 mM) and the substrate (10 µL/well, 75 mM). […] The enzyme solution was processed as a control. All readings were adjusted with blank-reading. All assays were performed in four independent wells. […] Absorbance differences between the two readings were taken, and percentage inhibition rates were calculated according to the following formula: % Inhibition=[(A(C)−A(B))−(A(I)−A(B))]/(A(C)−A(B))×100.
# (§4) • Blank (B): the well in which the inhibitor compound and substrate were not added; • Control (C): the well where the inhibitor compound was not added; • A(B): the difference in absorbance reading for the blank; • A(C): the difference in absorbance reading for the control; • A(I): the difference in absorbance reading for the inhibitor compounds.
# [1] = system: murine fibroblast healthy cell line (NIH3T3); assay: MTT cell viability assay; format: cell-based; settings: 24 h, 0.000316 µM to 1000 µM, read-out: IC50 against NIH3T3
# Method: (§5) The active compounds (4a, 4b, 4e, 4i, 4m, 4n, 4o, and 4t) were chosen to determine their cytotoxic activity toward a murine fibroblast healthy cell line (NIH3T3). After incubating the cells with active compounds at concentrations of 0.000316 µM to1000 µM for 24 h, the cell viability was measured using the 3-(4,5-dimethylthiazol-2-yl)-2,5-diphenyltetrazolium (MTT) assay. The inhibition percentage was calculated for each concentration of the test compounds. The IC50 values of the compounds were determined using a non-linear regression analysis over the calculated percentage inhibition values, and they are presented in Table 2. Accordingly, the cytotoxicity test proposed that the active derivatives were nontoxic against NIH3T3 cells at their active concentrations against BChE.
# (§6) Healthy murine embryonic fibroblast cells (NIH3T3 cell line) were used for the cytotoxicity tests. The cell line and selected compounds were prepared for an MTT assay as reported previously. The optical densities (OD) of 96 well plates were recorded at 540 nm. […]
# BChE (Equine) = target: T2, BChE (Equine) (Equus caballus, UniProt P81908); assay: biochemical; format: biochemical
# T2 construct: purchased Sigma-Aldrich (Steinheim, Germany)
# Method: as §1, §2, §3, §4
# AChE (Human) = target: T3, AChE (Human) (Homo sapiens, UniProt P22303); assay: AChE inhibition, Ellman's method; format: biochemical
# T3 construct: purchased Sigma-Aldrich (Steinheim, Germany)
# Method: as §1, §2, §3, §4
# [2] = target: T4, AChE (Electrophorus electricus) (Electrophorus electricus, UniProt O42275); assay: AChE inhibition, Ellman's method; format: biochemical
# T4 construct: purchased Sigma-Aldrich (Steinheim, Germany)
# Method: as §1, §2, §3, §4
# MTT cell viability assay = format: cell-based, murine; settings: mouse, NIH3T3 murine embryonic fibroblast cells, 0.000316 µM to 1000 µM, read-out: IC50 against NIH3T3
# Method: as §5, §6
# [3] = target: T5, human butyrylcholinesterase (BChE) (Homo sapiens, UniProt P06276); assay: Enzyme kinetics of BChE inhibition (Lineweaver-Burk plots); format: biochemical
# T5 construct: purchased Sigma-Aldrich (Steinheim, Germany)
# Source text: To recognize the inhibition type, enzyme kinetics studies were applied using Lineweaver–Burk plots. […]. […] This pattern also indicates a mixed-type inhibition.
# The calculation of the inhibition constant (Ki) is an effective tool for measuring the affinity of an enzyme for […], and it is easily determined using the secondary plots of the Lineweaver–Burk equation. […].
# In the kinetics studies, the assay protocol specified for the inhibition assay was identical. […]. Measurements were performed one of two ways, in the presence and in the absence of the inhibitor. […]. After addition of BChE (20 μL/well), the mixture was incubated under the same conditions as the activity assay. Then, the reaction was initiated by the addition of Ellman’s reagent (DTNB; 20 µL/well, 10 mM) and the substrate (10 µL/well, 75 mM). The absorbance was measured for 10 min at 412 nm. The enzyme solution was processed as a control. All readings were adjusted with blank-reading. The results were analyzed as Lineweaver–Burk plots using Microsoft Office Excel 2013 [15].
# [4] = read-out: BChE (Human) inhibitory activity (%) ± SD
# [5] = read-out: AChE (Human) inhibitory activity (%) ± SD
# [6] = read-out: AChE (Electrophorus electricus) inhibitory activity (%) ± SD
# T1 sequence (P06276 29-602): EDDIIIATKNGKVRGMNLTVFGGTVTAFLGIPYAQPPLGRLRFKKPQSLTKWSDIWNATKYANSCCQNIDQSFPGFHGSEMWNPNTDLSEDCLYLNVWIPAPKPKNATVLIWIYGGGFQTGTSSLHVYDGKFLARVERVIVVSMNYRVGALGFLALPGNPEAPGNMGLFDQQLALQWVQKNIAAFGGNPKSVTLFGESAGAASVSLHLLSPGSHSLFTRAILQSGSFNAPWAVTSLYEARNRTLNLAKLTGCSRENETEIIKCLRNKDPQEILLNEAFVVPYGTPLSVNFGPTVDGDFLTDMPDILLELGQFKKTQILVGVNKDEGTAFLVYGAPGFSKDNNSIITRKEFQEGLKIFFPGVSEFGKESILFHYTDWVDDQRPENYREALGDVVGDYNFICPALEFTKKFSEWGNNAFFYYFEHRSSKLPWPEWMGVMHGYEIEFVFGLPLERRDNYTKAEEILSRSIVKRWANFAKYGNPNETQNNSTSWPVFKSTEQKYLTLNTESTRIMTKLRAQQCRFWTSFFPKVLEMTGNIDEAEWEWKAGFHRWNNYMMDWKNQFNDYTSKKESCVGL
# T3 sequence (P22303 32-614): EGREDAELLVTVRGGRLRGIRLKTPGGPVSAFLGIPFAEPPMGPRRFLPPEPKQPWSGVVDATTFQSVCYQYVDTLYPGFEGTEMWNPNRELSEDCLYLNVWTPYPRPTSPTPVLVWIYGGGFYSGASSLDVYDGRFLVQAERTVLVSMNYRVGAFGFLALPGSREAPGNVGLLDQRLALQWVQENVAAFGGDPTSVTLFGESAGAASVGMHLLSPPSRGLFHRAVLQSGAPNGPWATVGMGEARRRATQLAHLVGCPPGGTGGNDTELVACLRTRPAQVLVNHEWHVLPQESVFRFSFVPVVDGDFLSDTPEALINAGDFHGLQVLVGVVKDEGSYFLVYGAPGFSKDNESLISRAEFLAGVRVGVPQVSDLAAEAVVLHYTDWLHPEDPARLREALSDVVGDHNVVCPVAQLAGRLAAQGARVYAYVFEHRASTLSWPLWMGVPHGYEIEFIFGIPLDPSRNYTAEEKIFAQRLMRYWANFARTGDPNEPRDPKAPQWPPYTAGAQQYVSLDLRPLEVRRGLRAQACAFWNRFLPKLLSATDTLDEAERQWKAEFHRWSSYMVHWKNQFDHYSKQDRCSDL
# T4 sequence (O42275 24-633): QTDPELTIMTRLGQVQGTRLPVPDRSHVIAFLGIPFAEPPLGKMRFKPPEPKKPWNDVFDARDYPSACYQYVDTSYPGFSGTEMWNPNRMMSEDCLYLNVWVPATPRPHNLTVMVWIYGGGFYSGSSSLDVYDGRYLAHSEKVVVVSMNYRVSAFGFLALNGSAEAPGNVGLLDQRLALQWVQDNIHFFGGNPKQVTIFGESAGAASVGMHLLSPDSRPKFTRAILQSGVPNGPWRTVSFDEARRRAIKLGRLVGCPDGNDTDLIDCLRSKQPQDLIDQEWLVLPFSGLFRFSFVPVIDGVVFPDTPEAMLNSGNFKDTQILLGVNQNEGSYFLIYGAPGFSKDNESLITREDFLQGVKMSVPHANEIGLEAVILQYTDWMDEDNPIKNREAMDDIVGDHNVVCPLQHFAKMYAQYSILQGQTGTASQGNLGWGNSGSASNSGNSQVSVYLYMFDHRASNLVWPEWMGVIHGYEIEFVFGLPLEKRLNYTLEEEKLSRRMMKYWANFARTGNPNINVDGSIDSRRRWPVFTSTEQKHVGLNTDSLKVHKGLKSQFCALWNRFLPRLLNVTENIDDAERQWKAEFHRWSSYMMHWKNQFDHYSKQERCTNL
# T2 sequence (P81908 whole entry): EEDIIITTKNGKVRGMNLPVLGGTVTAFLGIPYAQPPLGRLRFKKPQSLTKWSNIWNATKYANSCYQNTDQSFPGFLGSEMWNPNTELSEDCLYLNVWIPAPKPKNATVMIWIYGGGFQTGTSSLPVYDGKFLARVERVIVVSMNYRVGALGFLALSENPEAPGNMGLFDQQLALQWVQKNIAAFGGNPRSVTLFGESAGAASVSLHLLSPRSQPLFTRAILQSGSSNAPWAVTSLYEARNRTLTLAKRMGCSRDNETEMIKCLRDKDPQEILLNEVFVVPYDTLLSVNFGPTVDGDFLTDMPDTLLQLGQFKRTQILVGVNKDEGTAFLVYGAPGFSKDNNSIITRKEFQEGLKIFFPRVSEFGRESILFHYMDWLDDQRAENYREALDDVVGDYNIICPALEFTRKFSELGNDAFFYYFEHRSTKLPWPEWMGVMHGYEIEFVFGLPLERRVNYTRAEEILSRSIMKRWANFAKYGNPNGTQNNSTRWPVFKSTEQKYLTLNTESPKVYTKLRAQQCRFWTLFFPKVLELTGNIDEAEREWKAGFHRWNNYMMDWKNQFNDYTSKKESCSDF
# T5 sequence (P06276 29-602): as the sequence (P06276 29-602) above
smiles,measurement,setting,value
"O=C(CSC(=S)N1CCN(C(c2ccccc2)c2ccccc2)CC1)Nc1c2ccccc2nc2ccccc12 [Compound 4m, 2-(9-Acridinylamino)-2-oxoethyl 4-benzhydrylpiperazine-1-carbodithioate]",BChE (Human) inhibitory activity (%) ± SD,BChE (Human); 10^-3 M,98.18±2.71%
same,BChE (Human) inhibitory activity (%) ± SD,BChE (Human); 10^-4 M,* 97.50 ± 2.06%
same,BChE (Human) inhibitory activity (%) ± SD,BChE (Human); 10^-5 M,92.54±2.45%
same,BChE (Human) inhibitory activity (%) ± SD,BChE (Human); 10^-6 M,81.25±2.08%
same,BChE (Human) inhibitory activity (%) ± SD,BChE (Human); 10^-7 M,44.61±0.79%
same,BChE (Human) inhibitory activity (%) ± SD,BChE (Human); 10^-8 M,29.11±0.63%
same,BChE (Human) inhibitory activity (%) ± SD,BChE (Human); 10^-9 M,17.00±0.33%
same,fold better BChE inhibition in comparison with donepezil,BChE (Human); ratio of IC50 values,15.4 fold
same,IC50,BChE (Human); read-out: BChE (Human) IC50,93 ± 2 nM
same,IC50,[1],214 µM
same,IC50,BChE (Equine),92 ± 1 nM
same,BChE (Equine) inhibitory activity (%) ± SD,BChE (Equine); 10^-3 M,99.65±3.86%
same,BChE (Equine) inhibitory activity (%) ± SD,BChE (Equine); 10^-4 M,* 98.96 ± 3.47%
same,BChE (Equine) inhibitory activity (%) ± SD,BChE (Equine); 10^-5 M,90.78±3.92%
same,BChE (Equine) inhibitory activity (%) ± SD,BChE (Equine); 10^-6 M,80.30±2.56%
same,BChE (Equine) inhibitory activity (%) ± SD,BChE (Equine); 10^-7 M,40.34±0.61%
same,BChE (Equine) inhibitory activity (%) ± SD,BChE (Equine); 10^-8 M,30.24±0.70%
same,BChE (Equine) inhibitory activity (%) ± SD,BChE (Equine); 10^-9 M,18.98±0.20%
same,AChE (Human) inhibitory activity (%) ± SD,AChE (Human); 10^-3 M,75.18±1.21%
same,AChE (Human) inhibitory activity (%) ± SD,AChE (Human); 10^-4 M,27.38 ± 1.10%
same,AChE (Electrophorus electricus) inhibitory activity (%) ± SD,[2]; 10^-3 M,71.23±2.15%
same,AChE (Electrophorus electricus) inhibitory activity (%) ± SD,[2]; 10^-4 M,25.43 ± 1.21%
"O=C(CSC(=S)N1CCN(Cc2ccc(C(F)(F)F)cc2)CC1)Nc1c2ccccc2nc2ccccc12 [Compound 4n, 2-(9-Acridinylamino)-2-oxoethyl 4-(4-(trifluoromethyl)benzyl)piperazine-1-carbodithioate]",IC50,BChE (Human),14 ± 0.5 nM
same,inhibition at 0.001 µM,BChE (Human); [4],37.2 ± 0.69%
same,inhibition at 0.01 µM,BChE (Human); [4],43.6 ± 0.84%
same,inhibition at 0.1 µM,BChE (Human); [4],50.5 ± 0.69%
same,inhibition at 1 µM,BChE (Human); [4],83.2 ± 1.07%
same,inhibition at 10 µM,BChE (Human); [4],93.7 ± 2.45%
same,inhibition at 100 µM,BChE (Human); [4],98.2%
same,inhibition at 1000 µM,BChE (Human); [4],99.3 ± 2.1%
same,IC50 at 24 h,MTT cell viability assay,> 1 mM
same,IC50,BChE (Equine),15 ± 0.6 nM
same,inhibition at 1000 µM,"BChE (Equine); 10^-3 M, read-out: BChE (Equine) inhibitory activity (%) ± SD",99.5 ± 2.97%
same,inhibition at 100 µM,"BChE (Equine); 10^-4 M, read-out: BChE (Equine) inhibitory activity (%) ± SD",99%
same,inhibition at 10 µM,"BChE (Equine); 10^-5 M, read-out: BChE (Equine) inhibitory activity (%) ± SD",92.5 ± 2.86%
same,inhibition at 1 µM,"BChE (Equine); 10^-6 M, read-out: BChE (Equine) inhibitory activity (%) ± SD",81.3 ± 1.25%
same,inhibition at 0.1 µM,"BChE (Equine); 10^-7 M, read-out: BChE (Equine) inhibitory activity (%) ± SD",49.3 ± 0.58%
same,inhibition at 0.01 µM,"BChE (Equine); 10^-8 M, read-out: BChE (Equine) inhibitory activity (%) ± SD",43.7 ± 1.11%
same,inhibition at 0.001 µM,"BChE (Equine); 10^-9 M, read-out: BChE (Equine) inhibitory activity (%) ± SD",39.25 ± 0.22%
same,IC50,AChE (Human),41.1 ± 1.69 µM
same,inhibition at 0.001 µM,AChE (Human); [5],3 ± 0.12%
same,inhibition at 0.01 µM,AChE (Human); [5],5.51 ± 0.17%
same,inhibition at 0.1 µM,AChE (Human); [5],9.18 ± 0.22%
same,inhibition at 1 µM,AChE (Human); [5],10.5 ± 0.37%
same,inhibition at 10 µM,AChE (Human); [5],18.5 ± 0.54%
same,inhibition at 100 µM,AChE (Human); [5],68.4%
same,inhibition at 1000 µM,AChE (Human); [5],83.3 ± 1.78%
same,IC50,[2],45.9 ± 1.58 µM
same,inhibition at 0.001 µM,[2]; [6],6.91 ± 0.27%
same,inhibition at 0.01 µM,[2]; [6],8.43 ± 0.38%
same,inhibition at 0.1 µM,[2]; [6],11.3 ± 0.61%
same,inhibition at 1 µM,[2]; [6],14.6 ± 0.76%
same,inhibition at 10 µM,[2]; [6],22.4 ± 0.8%
same,inhibition at 100 µM,[2]; [6],63.2%
same,inhibition at 1000 µM,[2]; [6],81 ± 2.65%
same,inhibition type of BChE,"[3]; Lineweaver-Burk plot, inhibitor at IC50/2, IC50, 2 x IC50",mixed inhibition
same,Ki,"[3]; secondary plot of Lineweaver-Burk, substrate BTCI, read-out: steady-state inhibition constant (Ki) against BChE",17.5 nM
"Cc1ccc(CN2CCN(C(=S)SCC(=O)Nc3c4ccccc4nc4ccccc34)CC2)cc1 [Compound 4o, 2-(9-Acridinylamino)-2-oxoethyl 4-(4-methylbenzyl)piperazine-1-carbodithioate]",BChE (Human) inhibitory activity (%) ± SD,BChE (Human); 10^-3 M,99.25±2.63%
same,BChE (Human) inhibitory activity (%) ± SD,BChE (Human); 10^-4 M,* 75.25 ± 2.08%
same,BChE (Human) inhibitory activity (%) ± SD,BChE (Human); 10^-5 M,48.19±1.12%
same,BChE (Human) inhibitory activity (%) ± SD,BChE (Human); 10^-6 M,41.37±0.95%
same,BChE (Human) inhibitory activity (%) ± SD,BChE (Human); 10^-7 M,37.90±0.71%
same,BChE (Human) inhibitory activity (%) ± SD,BChE (Human); 10^-8 M,24.71±0.55%
same,BChE (Human) inhibitory activity (%) ± SD,BChE (Human); 10^-9 M,20.80±0.48%
same,IC50,BChE (Human); read-out: BChE (Human) IC50,1070 ± 39 nM
same,IC50,[1],> 1000 µM
same,IC50,BChE (Equine),1070 ± 51 nM
same,BChE (Equine) inhibitory activity (%) ± SD,BChE (Equine); 10^-3 M,98.64±3.86%
same,BChE (Equine) inhibitory activity (%) ± SD,BChE (Equine); 10^-4 M,* 74.83 ± 2.17%
same,BChE (Equine) inhibitory activity (%) ± SD,BChE (Equine); 10^-5 M,46.33±0.91%
same,BChE (Equine) inhibitory activity (%) ± SD,BChE (Equine); 10^-6 M,42.99±0.97%
same,BChE (Equine) inhibitory activity (%) ± SD,BChE (Equine); 10^-7 M,35.48±0.67%
same,BChE (Equine) inhibitory activity (%) ± SD,BChE (Equine); 10^-8 M,25.36±0.49%
same,BChE (Equine) inhibitory activity (%) ± SD,BChE (Equine); 10^-9 M,16.54±0.56%
same,AChE (Human) inhibitory activity (%) ± SD,AChE (Human); 10^-3 M,90.29±2.18%
same,AChE (Human) inhibitory activity (%) ± SD,AChE (Human); 10^-4 M,30.45 ± 1.15%
same,AChE (Electrophorus electricus) inhibitory activity (%) ± SD,[2]; 10^-3 M,94.97±3.61%
same,AChE (Electrophorus electricus) inhibitory activity (%) ± SD,[2]; 10^-4 M,25.30 ± 1.01%
